“And” between values parts separate entries of the source, which are not always exact repeats. Identical values can stand only once.
Assays:
[1] = Tolerance, intraperitoneal route, rabbits; details: rabbit, in vivo, ip, single dose, read-out: tolerated single dose
Description: Rabbits tolerate a single dose of 8 g/kg by the intraperitoneal route.

[2] = system: oxygen consumption of the rat; assay: Oxygen consumption in metabolism apparatus for small animals (BARGETON and […]); assay type: in vivo
Description: The results obtained are given as percentage of the control tests in the following table I.

Rabbit atrium = assay: Isolated rabbit atrium
Description: The technique used for this study was the same as that described above for the ileum of the rabbit, but replacing the ileum with bled rabbit atrium. The preservation liquid used as LOCKE's liquid.

[3] = system: isolated segment of aorta; assay: Isolated segment of aorta, tonus
[4] = system: response to adrenalin, noradrenalin and serotonin; assay: Response to adrenalin, noradrenalin and serotonin in the dog; assay type: in vivo; details: in the presence of dihydroxyacetone
glucidic metabolism = assay: Glucidic metabolism under intravenous perfusion in rabbits (lactacidemia, pyruvicemia, glycemia); assay type: in vivo, rabbit
Procedure: These tests were carried out on rabbits weighing an average of 2.500 kg.
A trachetomy was carried out under local anaesthesia with procaine. […] A saphenous vein and the two femoral arteries were catheterized under local anaesthesia in order to register the blood pressure by a manometer and to take blood samples; a jugular vein was catheterized to the base of the skull to sample cerebral venous blood.
The results obtained were compared with those obtained following a perfusion carried out in the same way with sodium d,l-lactate at a dose of 40 mg/kg/min.
The glycemia was measured by the enzymatic method in the arterial and cerebral venus blood. The samples were taken before the perfusion, at the end of the perfusion, and at 30 minutes and 60 minutes after perfusion.

Nitrogen anoxemia = Nitrogen anoxemia in rabbits; assay type: in vivo, rabbit
Procedure: The tests were done on rabbits weighing an average of 2.5 kg. The fastening of the cranial electrodes was done under local anaesthesia with procaine, as was the placing of the catheters in a femoral artery to record the blood pressure. The tracheotomies and tracheal intubations were also done under local anaesthesia using procaine. The temperature was maintained at around 38° C. Three types of anoxemia were investigated; 3. Nitrogen anoxemia: The animal was curarized and artifically ventilated as indicated above. Anoxemia was obtained by connecting a nitrogen gasbag to the air intake of the BEAUDOUIN apparatus; general non-hypercapnic anoxemia occurred. Air was […] seconds. […] A latency of 30 minutes was observed before anoxemia was caused.

[5] = system: free fatty acids in the plasma; assay: Non-esterified fatty acids in the plasma (DOLE); assay type: in vivo, rabbit; details: 1 g/kg
Procedure: Doses of 1 and 2 mg of adrenalin were introduced subcutaneously into rabbits weighing 2.5 to 3.5 kg.
FIGS. 8, 9 and 10 show the variation in the percentage of non-esterified fatty acids in the plasma as a function of the time. […]

[6] = system: hepatic and renal circulation
cerebral lactate edema = details: edema induced by mechanical, biological or pharmacological means; cited from earlier work
rats = assay: Toxicity, intraperitoneal injection in rats

O=C(CO)CO [dihydroxyacetone]
MTD [1]: 8000 mg/kg
mean decrease (oxygen consumption) ([2]; 2 g / kilogram): 6.5
Difference between the control measurement and the measurement after injection (oxygen consumption) ([2]; 2 g/kg, individual tests No. 1 to 12): 0 percentage of the control test and -18 percentage of the control test and -16 percentage of the control test and -13 percentage of the control test and -11 percentage of the control test
mean decrease (oxygen consumption) ([2]; 4 g / kilogram): 4.1
Difference between the control measurement and the measurement after injection (oxygen consumption) ([2]; 4 g/kg, individual tests No. 1 to 8): -13 percentage of the control test and -10 percentage of the control test
oxygen consumption of the rat ([2]; overall result in words): decreased the oxygen consumption of the rat
amplitude of atrium (Rabbit atrium; 800 mg per 75 ml of preservation liquid): a slight increase in amplitude
effect on inhibitory action of sodium lactate added subsequently (Rabbit atrium; dihydroxyacetone 800 mg per 75 ml, then 600 mg of sodium lactate): a slight opposition to its inhibitory action
action on the lactate when it was added first (Rabbit atrium; lactate added first): no action
chronotropic action (Rabbit atrium; rabbit atrium): negative chronotropic action
tonus of an isolated segment of aorta [3]: does not act on the tonus
response to adrenalin, noradrenalin and serotonin [4]: remained unchanged
lactacidemia compared with perfusion of sodium lactate (glucidic metabolism; 66 mg/kg over 15 minutes): values lower than those obtained after a perfusion of sodium lactate
lactacidemia at 30 and 60 minutes after the end of perfusion (glucidic metabolism; 30 and 60 minutes after perfusion): continued to increase at 30 and 60 minutes after the end of perfusion
glycemia (glucidic metabolism; after a perfusion): increased considerably
lactacidemia when perfusion of sodium lactate was followed by perfusion of dihydroxyacetone (glucidic metabolism; after sodium lactate): a progressive fall in the lactacidemia
pyruvicemia (glucidic metabolism; rabbit, intravenous perfusion): increased in parallel with lactacidemia
recuperation latency, nitrogen anoxemia (Nitrogen anoxemia; 1 g/kg intravenously): a slight improvement
recuperation time, nitrogen anoxemia (Nitrogen anoxemia; 1 g/kg intravenously): no improvement
survival time, nitrogen anoxemia (Nitrogen anoxemia; 1 g/kg intravenously, prior perfusion): minor
blood pressure in nitrogen anoxemia (Nitrogen anoxemia; anoxemia preceded by perfusion of dihydroxyacetone): maintained a high value
percentages of non-esterified fatty acids in the plasma after adrenalin ([5]; after 1 mg of adrenalin, fed animals, FIG. 10): general tendency toward increased percentages
percentage of non-esterified fatty acids in the plasma, fasted animals ([5]; animals without food for 24 hours, FIG. 11): return to normal
blood CO2 pressure ([6]; in vivo): stable
blood pH without neutralisation of the solution ([6]; in vivo): a slight fall in the blood pH
average pressure and pulse pressure ([6]; intravenous perfusion of 2 g/kg): A slight increase in the average pressure and a widening of the pulse pressure
hepatic and renal flows ([6]; rapid perfusion, 1 g/kg): variably increased
hepatic flow ([6]; rapid perfusion, 1 g/kg): nearly doubled
protection against cerebral lactate edema (cerebral lactate edema): will protect a rat against cerebral lactate edema
animals died, repeated injection every 2 hours (rats; 4.5 g/kg every 2 hours, third group of 5 rats): 3 animals
maximum non-lethal dose (rats; intraperitoneal injection, rats): about 7.50 g/kg

— patent US4049795A, “Treatment of hemorrhagic shock” (priority 1974, dated 1977)
